The results in this text go back to patent US9683014B2, “Dipeptide mimetics of NGF and BDNF neurotrophins” (UCHREZHDENIE ROSSIISKOI AKADEMII MEDITSYNSKIKH NAUK …, priority 2009, dated 2017).

Data set [1] has as its system C57B1/6 mice. Conditions: 1.0 mg/kg i.p. 24 h prior to MPTP 30 mg/kg i.p.; 60 min after MPTP; active control 8. On the procedure:
The test compound was administered intraperitoneally to male C57B1/6 mice weighing 22-25 g at a preselected dose of 1.0 mg/kg at 24 hours prior to the MPTP injection (30 mg/kg i.p.). The animals were placed in the open-field device 60 min after the MPTP injection. Animal's horizontal and vertical motor activities were monitored for 2 minutes. Passive control group was represented by animals treated with distilled water instead of MPTP. […] The treatment group was treated with GK-2 followed by MPTP. Statistical data treatment was carried out using the Mann-Whitney U-test.

Data set [2] has as its system PC12 cell line. The experiment in a line: Cellular model of Parkinson's disease (MPTP, MTT test). Type of data set: cell-based, rat. On the procedure: To produce a model for Parkinson's disease, MPTP was used at a final concentration of 1 mM (Shimoke K., Chiba H. Nerve growth factor prevents 1-methyl-[…]-1,2,3,6-tetrahydropyridine-induced cell death via the Akt pathway by suppressing caspase-3-like activity using PC12 cells: relevance to therapeutic application for Parkinson's disease. J. Neurosci. Res. 2001, 63, 402-409). MPTP was added to the cell growth medium containing 1% FBS at 24 hours after passage. The peptides were added to the cell growth medium concurrently with MPTP or 24 h before MPTP. Cell viability was determined at 24 h using an MTT test.
(In general: Tetrazolium dyes change colour on reduction, which living cells bring about.)

Data set [3] concerns HT-22 cells. On the procedure:
The determination of cell viability was carried out by MTT test. MTT is a water soluble tetrazolium salt of yellow color which readily permeates cells. In living cells, MTT is converted into water insoluble formazan crystals of violet color. At the end of an experiment the growth medium was replaced with an MTT solution (0.5 mg/ml) and incubated for 30 min at 37° C. and 5% CO2. The MTT solution was then removed from the wells and DMSO was added to dissolve the formazan precipitate. Then the optical density was measured using a Multiscan (Thermo) spectrophotometer at a wavelength of 600 nm.

Data set [4] concerns Wistar rats. Conditions: 1 mg/kg i.p. x7. On the procedure:
The experiments were carried out on male Wistar rats weighing 280-400 g. Animals were anesthetized and scalped followed by being placed in the stereotaxis device. A skewed incision was made in the skull 1 mm wide: the start point for incision was at the level of bregma (AP=0.0) and 2 mm lateral of it (L=±2); the end point for incision was 2 mm caudal of bregma and 1 mm lateral of it (AP=2.0, L=±1). Following the sawing of the skull bone, the dura mater was incised carefully in the sawcut area. A sterile curved needle was inserted into the incision to a depth of 6.2 mm from the bone surface (DV=−6.2). By the simultaneous use of two screws in the stereotaxis device, the needle was moved slowly almost to the end point of the skewed incision. Then the needle was lifted slowly from the incision. The procedure was repeated twice on each hemisphere. Sham operation was similar to the transection procedure except that the needle was inserted to a depth of 3 mm from the bone surface (DV=−3.0). The first injection of the test compound (1 mg/kg i.p.) in the treatment group or of distilled water in the control group was made 2 hours after the transection. Further injections were made every 48 hours. In the course of the experiment each animal received 7 injections of the test compound.
To detect behavioral abnormalities induced by the transection of the septo-hippocampal pathway, the open-field test was used. The choice of this test was based on the following studies: 1) Lamprea M. R., Cardenas F. P., Silveira R., Walsh T. J., Morato S. Effects of septal cholinergic lesion on rat exploratory behavior in an open-field. Braz. J. Med. Biol. Res. 2003, 36(2), 233-238; 2) Cassel J. S., Kelche C., Peterson G. M., Ballough G. P., Goepp I., Will B. Graft-induced behavioral recovery from subcallosal septohippocampal damage in rats depends on maturity stage of donor tissue. Neuroscience, 1991, 45(3), 571-586. Animals were tested in the open-field device 48 hours after the last injection of the test compound (at 14 days after surgery). Differences between experimental groups were assessed according to the Wilcoxon paired test. The data are expressed as the median values for the respective samples.

In data set [5] the test system is rats with ischemic cerebral infarction. The following applies: 7 days after surgery; 1 mg/kg i.p. x3.

Read-outs that look alike come from different tables or passages of the source. Marks after values point to notes of the source that are not given here.

As for `NCCCC[C@H](NC(=O)[C@H](CCC(=O)O)NC(=O)CCC(=O)O)C(=O)NCCCCCCNC(=O)[C@H](CCCCN)NC(=O)[C@H](CCC(=O)O)NC(=O)CCC(=O)O` [GK-2, bis-(N-monosuccinyl-glutamyl-lysine) hexamethylenediamide], the “Number of sectors crossed (% of passive control)” value in data set [1] is 38*^+ % of passive control. In addition, the “protective effect against MPTP” value in data set [2] (added 24 hours prior to MPTP 1 mM) is “active at both 10^−5 M and 10^−8 M”; in data set [2] (added concurrently with MPTP 1 mM, 10^−5 M and 10^−8 M tested) it was “only at 10^−5 M”. In data set [3] (10^−8M, 24 h prior to glutamate, control 0.178 ± 0.010, glutamate 0.145 ± 0.013), the “Optical density (MTT)” value was 0.179 ± 0.007^. Moreover, the “protective effect against glutamate cytotoxicity” value in data set [3] (added 24 hours prior to glutamate) is recorded as “protective effect”. Besides, the “horizontal motor activity in the open-field test (median)” value in data set [4] (1st minute, 14 days after surgery, transection 11.5, sham 21) is given as 12.5; in data set [4] (2nd minute, transection 12, sham 14), 11.5; in data set [4] (3rd minute, transection 19, sham 9.5), 15.5; in data set [4] (4th minute, transection 11.5, sham 9), 6.5*. Besides, the “reduction in use of the affected limb and simultaneous use of 2 forelimbs” value in data set [5] is listed as “much less pronounced”.
